Laboratory results from patent publication US20260138961A1, “MODULATORS OF MITOCHONDRIAL DNA REPLICATION” (Pretzel Therapeutics, Inc., priority 2022, published 2026).

Biological target: T1, wild type human POLγ (POLγA:WT) (Homo sapiens, UniProt P54098)
T1 sequence (P54098 1-1239): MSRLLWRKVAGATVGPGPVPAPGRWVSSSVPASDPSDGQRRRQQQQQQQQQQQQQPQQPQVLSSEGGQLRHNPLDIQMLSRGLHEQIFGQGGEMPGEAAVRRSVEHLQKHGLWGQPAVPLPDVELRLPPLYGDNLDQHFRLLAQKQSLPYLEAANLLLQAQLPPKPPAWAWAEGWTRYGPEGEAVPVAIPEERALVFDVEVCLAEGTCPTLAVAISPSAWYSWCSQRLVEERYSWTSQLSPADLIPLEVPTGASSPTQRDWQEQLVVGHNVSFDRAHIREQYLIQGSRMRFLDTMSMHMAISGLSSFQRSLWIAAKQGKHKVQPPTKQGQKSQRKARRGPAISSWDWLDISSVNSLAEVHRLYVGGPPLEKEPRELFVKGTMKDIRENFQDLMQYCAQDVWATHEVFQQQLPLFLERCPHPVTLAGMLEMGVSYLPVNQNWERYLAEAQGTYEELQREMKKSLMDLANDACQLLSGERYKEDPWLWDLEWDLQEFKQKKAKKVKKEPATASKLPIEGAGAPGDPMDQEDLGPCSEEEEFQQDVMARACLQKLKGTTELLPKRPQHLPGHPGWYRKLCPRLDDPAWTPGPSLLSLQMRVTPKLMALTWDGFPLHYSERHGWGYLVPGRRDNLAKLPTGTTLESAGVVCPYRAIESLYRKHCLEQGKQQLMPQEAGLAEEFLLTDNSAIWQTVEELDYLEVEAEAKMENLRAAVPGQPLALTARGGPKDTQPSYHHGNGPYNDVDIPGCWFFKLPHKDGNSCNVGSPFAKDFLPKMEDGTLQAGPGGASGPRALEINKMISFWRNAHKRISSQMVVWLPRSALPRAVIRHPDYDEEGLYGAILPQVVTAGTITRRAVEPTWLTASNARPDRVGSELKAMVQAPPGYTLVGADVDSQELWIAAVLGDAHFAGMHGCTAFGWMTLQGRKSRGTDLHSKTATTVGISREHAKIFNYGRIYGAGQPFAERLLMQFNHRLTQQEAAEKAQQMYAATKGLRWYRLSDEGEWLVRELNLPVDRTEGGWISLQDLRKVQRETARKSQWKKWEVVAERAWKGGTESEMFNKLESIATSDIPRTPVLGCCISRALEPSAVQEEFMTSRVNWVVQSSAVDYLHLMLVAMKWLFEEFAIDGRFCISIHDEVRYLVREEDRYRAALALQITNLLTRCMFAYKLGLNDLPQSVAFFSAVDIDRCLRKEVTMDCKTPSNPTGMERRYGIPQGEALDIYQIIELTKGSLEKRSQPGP
T1 sequence (Q9UHN1 1-485 partner): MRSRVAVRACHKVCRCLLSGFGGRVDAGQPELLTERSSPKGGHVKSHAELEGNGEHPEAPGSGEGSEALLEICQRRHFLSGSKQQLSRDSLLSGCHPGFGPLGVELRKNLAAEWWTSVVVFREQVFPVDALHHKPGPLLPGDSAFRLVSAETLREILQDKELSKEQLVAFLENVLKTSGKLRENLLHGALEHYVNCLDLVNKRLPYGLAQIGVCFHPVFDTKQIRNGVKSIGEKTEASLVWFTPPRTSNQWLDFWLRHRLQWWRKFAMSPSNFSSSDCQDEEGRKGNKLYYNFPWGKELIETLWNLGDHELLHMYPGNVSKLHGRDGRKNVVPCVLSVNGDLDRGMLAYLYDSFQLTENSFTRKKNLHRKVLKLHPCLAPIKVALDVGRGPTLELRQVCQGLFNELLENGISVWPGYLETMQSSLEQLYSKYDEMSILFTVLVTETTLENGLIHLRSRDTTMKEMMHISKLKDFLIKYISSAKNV
Assay: DNA polymerization assay, wild type POLγ
Assay type: biochemical
Conditions: 0.1 μM dNTP, read-out: WT AC50 (μM) at 0.1 μM
Procedure: DNA Polymerization Assay to Monitor Effects on Human Wildtype POLγ and Four Disease-Causing Mutant Variants of Human POLγ.
The ability of small molecules to stimulate the polymerase activity of POLγ was analyzed in a quantitative fluorescence SYBR Green I assay with fluorescence intensity (FI) readout.
In the presence of dNTPs, wild type human POLγ and mutant derivatives thereof were incubated with single-stranded, circular M13mp18 ssDNA hybridized to a short DNA oligonucleotide that functions as a primer for initiation of DNA synthesis. POLγ and mutant derivatives thereof will extend the primer and use the M13mp18 molecule as a template to synthesize long stretches of double-stranded DNA. SYBR Green I, which is a double-stranded DNA-binding dye, was used to quantify formation of double-stranded DNA in the reaction. When bound to double-stranded DNA, SYBR Green I fluorescence increases by up to 100-fold.
The assay was performed in the 384-well plate format. Upon addition of compounds, changes in double-stranded DNA synthesis activity can be monitored by following effects on fluorescent intensity.
The reactions also contained the accessory POLγB subunit, and the human mitochondrial single-stranded DNA binding protein (mtSSB).
The DNA template mixture used in the assay contained 0.5 nM primed M13 mp18 ssDNA, 400 nM mtSSB, 0.1 mM Tris-HCl (pH 8.0), 0.1 mM dNTP, 10 mM MgCl2, 0.1 mg/mL BSA, 1 mM TCEP solution, and 0.02% Triton X-100. The DNA template mixture for the wild type protein contained either 100 μM dNTP, 1 μM dNTP, or 0.1 μM dNTP, designated in Table 2 as 100 μM, 1 μM, and 0.1 μM, respectfully.
Microplates with compounds (0.1 μL in each well) to be tested in the assay were prepared from 10 mM compound stocks in 100% DMSO, and equal amounts of DMSO without any compound were added to positive and negative control wells.
The protein mixture was dispensed (5 μL into each well) into compound plates and incubated at 37° C. for 15 minutes. After incubation, 5 μL of the DNA template mixture was dispensed into each well. The plates were then incubated at 37° C. for 2 hours.
During incubation, a combined stop buffer and detection reagent solution was prepared. The buffer contained 25 mM EDTA (pH 8.0), 0.02% Triton X-100, and SYBR Green I [Invitrogen] diluted 10,000× (for fluorescent readout). EDTA will stop the enzymatic reaction by chelating magnesium ions.

SMILES	AC50
Cc1ccc(C)c(S(=O)(=O)Nc2cccc(C(=O)N3CCOCC3)c2)c1 [Example 29, 2,5-dimethyl-N-(3-(morpholine-4-carbonyl)phenyl)benzenesulfonamide]	2 µM
CC(=O)N1CCN(C(=O)c2cccc(NS(=O)(=O)c3cc(C)ccc3C)c2)CC1 [Example 30, N-(3-(4-acetylpiperazine-1-carbonyl)phenyl)-2,5-dimethylbenzenesulfonamide]	2 µM
Cc1ccc(C)c(S(=O)(=O)Nc2cccc(C(=O)N3CCCCCC3)c2)c1 [Example 32, N-(3-(azepane-1-carbonyl)phenyl)-2,5-dimethylbenzenesulfonamide]	12 µM
Cc1ccc(C)c(S(=O)(=O)Nc2cccc(C(=O)N3CCSCC3C(N)=O)c2)c1 (stereo not drawn) [Example 41, 4-(3-((2,5-dimethylphenyl)sulfonamido)benzoyl) thiomorpholine-3-carboxamide]	> 100 µM
Cc1cc(S(=O)(=O)Nc2ccc(F)c(C(=O)N3CCC[C@H]3C)c2)c(C)cc1Cl [Example 49, (R)-4-chloro-N-(4-fluoro-3-(2-methylpyrrolidine-1-carbonyl)phenyl)-2,5-dimethylbenzenesulfonamide]	2 µM
Cc1cc(S(=O)(=O)Nc2cc(C(=O)N3CCC[C@H]3C)ccc2F)c(C)cc1Cl [Example 50, (R)-4-chloro-N-(2-fluoro-5-(2-methylpyrrolidine-1-carbonyl)phenyl)-2,5-dimethylbenzenesulfonamide]	1 µM
Cc1cc(S(=O)(=O)Nc2cccc(C(=O)N[C@H](C)CO)c2)c(C)cc1Cl [Example 51, (R)-3-((4-chloro-2,5-dimethylphenyl)sulfonamido)-N-(1-hydroxypropan-2-yl)benzamide]	6 µM
Cc1cc(S(=O)(=O)Nc2cccc(C(=O)N3CCN(C)C[C@H]3C)c2)c(C)cc1Cl [Example 54, (R)-4-chloro-N-(3-(2,4-dimethylpiperazine-1-carbonyl)phenyl)-2,5-dimethylbenzenesulfonamide]	1 µM
COCCN(C)C(=O)c1cccc(NS(=O)(=O)c2cc(C)c(Cl)cc2C)c1 [Example 58, 3-((4-chloro-2,5-dimethylphenyl)sulfonamido)-N-(2-methoxyethyl)-N-methylbenzamide]	3 µM

Same assay, conditions: 1 μM dNTP, read-out: WT AC50 (μM) at 1 μM

SMILES	AC50
COc1ccccc1-c1nc(NS(=O)(=O)c2cc(C)c(Cl)cc2C)cs1 [Example 155, 4-chloro-N-(2-(2-methoxyphenyl)thiazol-4-yl)-2,5-dimethylbenzenesulfonamide]	0.4 µM

Same assay, conditions: 100 μM dNTP, read-out: WT AC50 (μM) at 100 μM

SMILES	AC50
Cc1cc(S(=O)(=O)Nc2cccc(C(=O)N(C)C(C)CO)c2)c(C)cc1Cl (single isomer, unassigned) [Example 15, 3-((4-chloro-2,5-dimethylphenyl)sulfonamido)-N-(1-hydroxypropan-2-yl)-N-methylbenzamide]	> 10 µM
Cc1csc(-c2cccc(NS(=O)(=O)c3cc(C)c(Cl)cc3C)c2)n1 [Example 20, 4-chloro-2,5-dimethyl-N-(3-(4-methylthiazol-2-yl)phenyl)benzenesulfonamide]	0.3 µM
Cc1cnc(-c2cccc(NS(=O)(=O)c3cc(C)c(Cl)cc3C)c2)s1 [Example 21, 4-chloro-2,5-dimethyl-N-(3-(5-methylthiazol-2-yl)phenyl)benzenesulfonamide]	1 µM
Cc1ccc(C)c(S(=O)(=O)Nc2cccc(-c3nccs3)c2)c1 [Example 60]	0.6 µM
Cc1cc(S(=O)(=O)Nc2cccc(-c3cc(C4CC4)[nH]n3)c2)c(C)cc1Cl [Example 64, 4-chloro-N-(3-(5-cyclopropyl-1H-pyrazol-3-yl)phenyl)-2,5-dimethylbenzenesulfonamide]	0.7 µM
CC[C@@H]1CCCN1C(=O)c1cccc(NS(=O)(=O)c2cc(C)c(Cl)cc2C)c1 [Example 65, (R)-4-chloro-N-(3-(2-ethylpyrrolidine-1-carbonyl)phenyl)-2,5-dimethylbenzenesulfonamide]	8 µM
Cc1cc(-c2cccc(NS(=O)(=O)c3cc(C)c(Cl)cc3C)c2)n[nH]1 [Example 66, 4-chloro-2,5-dimethyl-N-(3-(5-methyl-1H-pyrazol-3-yl)phenyl)benzenesulfonamide]	0.5 µM
Cc1cc(S(=O)(=O)Nc2cccc(C(=O)N3CCC[C@H]3C(C)C)c2)c(C)cc1Cl [Example 67, (S)-4-chloro-N-(3-(2-isopropylpyrrolidine-1-carbonyl)phenyl)-2,5-dimethylbenzenesulfonamide]	> 10 µM
Cc1cc(S(=O)(=O)Nc2cccc(-c3cc[nH]n3)c2)c(C)cc1Cl [Example 68, N-(3-(1H-pyrazol-3-yl)phenyl)-4-chloro-2,5-dimethylbenzenesulfonamide]	0.2 µM
Cc1cc(S(=O)(=O)Nc2ccc3ccn(C(C)C)c3c2)c(C)cc1Cl [Example 69, 4-chloro-N-(1-isopropyl-1H-indol-6-yl)-2,5-dimethylbenzenesulfonamide]	1 µM
Cc1nc2ccc(NS(=O)(=O)c3cc(C)c(Cl)cc3C)cc2o1 [Example 70, 4-chloro-2,5-dimethyl-N-(2-methylbenzo[d]oxazol-6-yl)benzenesulfonamide]	11 µM
Cc1cc(S(=O)(=O)Nc2cccc(C(=O)N3CCCC34CC4)c2)c(C)cc1Cl [Example 162, N-(3-(4-azaspiro[2.4]heptane-4-carbonyl)phenyl)-4-chloro-2,5-dimethylbenzenesulfonamide]	0.4 µM
COc1cccc(-c2nc(NS(=O)(=O)c3cc(C)c(Cl)cc3C)cs2)c1 [Example 165, 4-chloro-N-(2-(3-methoxyphenyl)thiazol-4-yl)-2,5-dimethylbenzenesulfonamide]	0.7 µM
Cc1cc(S(=O)(=O)Nc2csc(C(=O)N3CCCC3)n2)c(C)cc1Cl [Example 166, 4-chloro-2,5-dimethyl-N-(2-(pyrrolidine-1-carbonyl)thiazol-4-yl)benzenesulfonamide]	2 µM
